Converted amounts (≈) assume the structure as drawn. Like-named read-outs stand apart in the source and are kept apart here.
What was measured:
[1] = test system: E. coli GC 4559; assay: MIC, broth microdilution; settings: Escherichia coli
[2] = test system: S. pneumoniae+ GC 4465; assay: MIC, broth microdilution; settings: Streptococcus pneumoniae
[3] = test system: S. typhimurium GC 2172; assay: MIC, broth microdilution; settings: Salmonella enterica, TYPHIMURIUM
[4] = test system: S. aureus GC 2216; assay: MIC, broth microdilution; settings: Staphylococcus aureus
[5] = test system: E. coli GC 2231; assay: MIC, broth microdilution; settings: Escherichia coli
[6] = test system: S. pyogenes GC 4563; assay: MIC, broth microdilution; settings: Streptococcus pyogenes
[7] = test system: S. pneumoniae* GC 4465; assay: MIC, broth microdilution; settings: Streptococcus pneumoniae
[8] = test system: S. aureus GC 6466; assay: MIC, broth microdilution; settings: Staphylococcus aureus
[9] = test system: E. coli GC 2234; assay: MIC, broth microdilution; settings: Escherichia coli
[10] = test system: E. coli GC 2232; assay: MIC, broth microdilution; settings: Escherichia coli
[11] = test system: Staph.; assay: Range of MIC for Staph. strains, including MRSA; settings: Staphylococcus aureus
[12] = test system: E. faecalis GC 4555; assay: MIC, broth microdilution; settings: Enterococcus faecalis
[13] = test system: E. coli; assay: Range of MIC for E. coli strains; settings: Escherichia coli
[14] = test system: E. coli GC 2235; assay: MIC, broth microdilution; settings: Escherichia coli
[15] = test system: E. faecalis GC 2242; assay: MIC, broth microdilution; settings: Enterococcus faecalis
[16] = test system: Staph. aureus Smith; assay: In vivo activity (oral, iv; ED50) against Staph. aureus Smith in mice
[17] = test system: E. coli GC 2236; assay: MIC, broth microdilution; settings: Escherichia coli
[18] = test system: S. agalactiae GC 4564; assay: MIC, broth microdilution; settings: Streptococcus agalactiae
[19] = test system: E. faecium GC 4556; assay: MIC, broth microdilution; settings: Enterococcus faecium
[20] = test system: S. aureus GC 4536; assay: MIC, broth microdilution; settings: Staphylococcus aureus
[21] = read-out: MINIMAL INHIBITORY CONCENTRATION MIC, pre-incubated in Human Serum
[22] = read-out: MINIMAL INHIBITORY CONCENTRATION MIC, pre-incubated in Mouse Serum
[23] = read-out: MINIMAL INHIBITORY CONCENTRATION MIC, pre-incubated in Water

MIC ([1]; GC4559, read-out: MINIMAL INHIBITORY CONCENTRATION MIC, pre-incubated in Human Serum): 64 µg/mL (≈ 82.3 µM)
MIC ([1]; GC4559, read-out: MINIMAL INHIBITORY CONCENTRATION MIC, pre-incubated in Mouse Serum): 2 µg/mL (≈ 2.57 µM)
MIC ([1]; GC4559, read-out: MINIMAL INHIBITORY CONCENTRATION MIC, pre-incubated in Water): > 64 µg/mL
MIC [2, 21]: 2 µg/mL (≈ 2.57 µM)
MIC [2, 22]: 2 µg/mL (≈ 2.57 µM)
MIC [2, 23]: 4 µg/mL (≈ 5.14 µM)
MIC [3, 21]: > 64 µg/mL
MIC [3, 22]: 4 µg/mL (≈ 5.14 µM)
MIC [3, 23]: > 64 µg/mL
MIC ([4]; GC2216, read-out: MINIMAL INHIBITORY CONCENTRATION MIC, pre-incubated in Human Serum): 1 µg/mL (≈ 1.29 µM)
MIC ([4]; GC2216, read-out: MINIMAL INHIBITORY CONCENTRATION MIC, pre-incubated in Mouse Serum): 1 µg/mL (≈ 1.29 µM)
MIC ([4]; GC2216, read-out: MINIMAL INHIBITORY CONCENTRATION MIC, pre-incubated in Water): 2 µg/mL (≈ 2.57 µM)
MIC ([5]; GC2231, read-out: MINIMAL INHIBITORY CONCENTRATION MIC, pre-incubated in Human Serum): 32 µg/mL (≈ 41.1 µM)
MIC ([5]; GC2231, read-out: MINIMAL INHIBITORY CONCENTRATION MIC, pre-incubated in Mouse Serum): 1 µg/mL (≈ 1.29 µM)
MIC ([5]; GC2231, read-out: MINIMAL INHIBITORY CONCENTRATION MIC, pre-incubated in Water): > 64 µg/mL
MIC ([6]; GC4563, read-out: MINIMAL INHIBITORY CONCENTRATION MIC, pre-incubated in Human Serum): 0.25 µg/mL (≈ 0.321 µM)
MIC ([6]; GC4563, read-out: MINIMAL INHIBITORY CONCENTRATION MIC, pre-incubated in Mouse Serum): 0.12 µg/mL (≈ 0.154 µM)
MIC ([6]; GC4563, read-out: MINIMAL INHIBITORY CONCENTRATION MIC, pre-incubated in Water): 0.25 µg/mL (≈ 0.321 µM)
MIC [7, 21]: 0.5 µg/mL (≈ 0.643 µM)
MIC [7, 22]: 0.25 µg/mL (≈ 0.321 µM)
MIC [7, 23]: 0.5 µg/mL (≈ 0.643 µM)
MIC ([8]; GC6466, read-out: MINIMAL INHIBITORY CONCENTRATION MIC, pre-incubated in Human Serum): 1 µg/mL (≈ 1.29 µM)
MIC ([8]; GC6466, read-out: MINIMAL INHIBITORY CONCENTRATION MIC, pre-incubated in Mouse Serum): 1 µg/mL (≈ 1.29 µM)
MIC ([8]; GC6466, read-out: MINIMAL INHIBITORY CONCENTRATION MIC, pre-incubated in Water): 2 µg/mL (≈ 2.57 µM)
MIC ([9]; GC2234, read-out: MINIMAL INHIBITORY CONCENTRATION MIC, pre-incubated in Human Serum): 16 µg/mL (≈ 20.6 µM)
MIC ([9]; GC2234, read-out: MINIMAL INHIBITORY CONCENTRATION MIC, pre-incubated in Mouse Serum): 1 µg/mL (≈ 1.29 µM)
MIC ([9]; GC2234, read-out: MINIMAL INHIBITORY CONCENTRATION MIC, pre-incubated in Water): > 64 µg/mL
MIC ([10]; GC2232, read-out: MINIMAL INHIBITORY CONCENTRATION MIC, pre-incubated in Human Serum): 16 µg/mL (≈ 20.6 µM)
MIC ([10]; GC2232, read-out: MINIMAL INHIBITORY CONCENTRATION MIC, pre-incubated in Mouse Serum): 1 µg/mL (≈ 1.29 µM)
MIC ([10]; GC2232, read-out: MINIMAL INHIBITORY CONCENTRATION MIC, pre-incubated in Water): > 64 µg/mL
MIC ([11]; MRSA, read-out: Range of MIC, Staph (Mouse Serum)): 1 to 2 µg/mL (≈ 1.29 to 2.57 µM)
MIC ([11]; MRSA, read-out: Range of MIC, Staph (Water)): 2 to 4 µg/mL (≈ 2.57 to 5.14 µM)
MIC ([11]; read-out: Minimum inhibitory concentration (MIC), Staph (Human Serum)): 1 to 4 µg/mL (≈ 1.29 to 5.14 µM)
MIC ([11]; read-out: Minimum inhibitory concentration (MIC), Staph (Water)): 2 to 4 µg/mL (≈ 2.57 to 5.14 µM)
MIC ([12]; GC4555, read-out: MINIMAL INHIBITORY CONCENTRATION MIC, pre-incubated in Human Serum): 4 µg/mL (≈ 5.14 µM)
MIC ([12]; GC4555, read-out: MINIMAL INHIBITORY CONCENTRATION MIC, pre-incubated in Mouse Serum): 1 µg/mL (≈ 1.29 µM)
MIC ([12]; GC4555, read-out: MINIMAL INHIBITORY CONCENTRATION MIC, pre-incubated in Water): 4 µg/mL (≈ 5.14 µM)
MIC ([13]; 20 h, read-out: Range of MIC, E. coli (Mouse Serum)): 0.5 to 2 µg/mL (≈ 0.643 to 2.57 µM)
MIC ([13]; read-out: Minimum inhibitory concentration (MIC), E. coli (water)): > 64 µg/mL
MIC ([13]; read-out: Range of MIC, E. coli (Water)): > 64 µg/mL
MIC ([14]; GC2235, read-out: MINIMAL INHIBITORY CONCENTRATION MIC, pre-incubated in Human Serum): 16 µg/mL (≈ 20.6 µM)
MIC ([14]; GC2235, read-out: MINIMAL INHIBITORY CONCENTRATION MIC, pre-incubated in Mouse Serum): 1 µg/mL (≈ 1.29 µM)
MIC ([14]; GC2235, read-out: MINIMAL INHIBITORY CONCENTRATION MIC, pre-incubated in Water): > 64 µg/mL
MIC ([15]; GC2242, read-out: MINIMAL INHIBITORY CONCENTRATION MIC, pre-incubated in Human Serum): 4 µg/mL (≈ 5.14 µM)
MIC ([15]; GC2242, read-out: MINIMAL INHIBITORY CONCENTRATION MIC, pre-incubated in Mouse Serum): 1 µg/mL (≈ 1.29 µM)
MIC ([15]; GC2242, read-out: MINIMAL INHIBITORY CONCENTRATION MIC, pre-incubated in Water): 4 µg/mL (≈ 5.14 µM)
MIC ([17]; GC2236, read-out: MINIMAL INHIBITORY CONCENTRATION MIC, pre-incubated in Human Serum): 32 µg/mL (≈ 41.1 µM)
MIC ([17]; GC2236, read-out: MINIMAL INHIBITORY CONCENTRATION MIC, pre-incubated in Mouse Serum): 1 µg/mL (≈ 1.29 µM)
MIC ([17]; GC2236, read-out: MINIMAL INHIBITORY CONCENTRATION MIC, pre-incubated in Water): > 64 µg/mL
MIC ([18]; GC4564, read-out: MINIMAL INHIBITORY CONCENTRATION MIC, pre-incubated in Human Serum): 1 µg/mL (≈ 1.29 µM)
MIC ([18]; GC4564, read-out: MINIMAL INHIBITORY CONCENTRATION MIC, pre-incubated in Mouse Serum): 0.5 µg/mL (≈ 0.643 µM)
MIC ([18]; GC4564, read-out: MINIMAL INHIBITORY CONCENTRATION MIC, pre-incubated in Water): 1 µg/mL (≈ 1.29 µM)
MIC ([19]; GC4556, read-out: MINIMAL INHIBITORY CONCENTRATION MIC, pre-incubated in Human Serum): 4 µg/mL (≈ 5.14 µM)
MIC ([19]; GC4556, read-out: MINIMAL INHIBITORY CONCENTRATION MIC, pre-incubated in Mouse Serum): 1 µg/mL (≈ 1.29 µM)
MIC ([19]; GC4556, read-out: MINIMAL INHIBITORY CONCENTRATION MIC, pre-incubated in Water): 4 µg/mL (≈ 5.14 µM)
MIC ([20]; GC4536, read-out: MINIMAL INHIBITORY CONCENTRATION MIC, pre-incubated in Human Serum): 1 µg/mL (≈ 1.29 µM)
MIC ([20]; GC4536, read-out: MINIMAL INHIBITORY CONCENTRATION MIC, pre-incubated in Mouse Serum): 1 µg/mL (≈ 1.29 µM)
MIC ([20]; GC4536, read-out: MINIMAL INHIBITORY CONCENTRATION MIC, pre-incubated in Water): 4 µg/mL (≈ 5.14 µM)
SMILES: Cc1ccc(C(=O)OCOC(=O)N(CC(=O)Nc2cc(N(C)C)c3c(c2O)C(=O)C2=C(O)[C@]4(O)C(=O)C(C(N)=O)=C(O)[C@@H](N(C)C)[C@@H]4C[C@@H]2C3)C(C)(C)C)cc1 [Example 47]
ED50 ([16]; Staphylococcus aureus, in Mus musculus, iv, read-out: ED50 SIV (Staph aureus Smith)): 1.2 mg/kg
ED50 ([16]; Staphylococcus aureus, in Mus musculus, po, read-out: ED50 SOD (Staph aureus Smith)): 14 mg/kg
ED50 ([16]; Staphylococcus aureus, in Mus musculus, po, read-out: ED50 Staph Smith SOD): 14 mg/kg
ED50 ([16]; iv, read-out: ED50 Staph Smith SIV): 1.2 mg/kg
